Laboratory results as given in ChEMBL document CHEMBL1201862, “PubChem BioAssay data set” (2004).
Activity calls are given as the source filed them.

Tests used:
[1] = target: T1, Calpain-2 catalytic subunit (Sus scrofa, UniProt P43367); assay: m-calpain protease blockers, concentration series – biochemical, fluorogenic peptide substrate, dose response (AID 1420); type: functional
T1 sequence (P43367 whole entry): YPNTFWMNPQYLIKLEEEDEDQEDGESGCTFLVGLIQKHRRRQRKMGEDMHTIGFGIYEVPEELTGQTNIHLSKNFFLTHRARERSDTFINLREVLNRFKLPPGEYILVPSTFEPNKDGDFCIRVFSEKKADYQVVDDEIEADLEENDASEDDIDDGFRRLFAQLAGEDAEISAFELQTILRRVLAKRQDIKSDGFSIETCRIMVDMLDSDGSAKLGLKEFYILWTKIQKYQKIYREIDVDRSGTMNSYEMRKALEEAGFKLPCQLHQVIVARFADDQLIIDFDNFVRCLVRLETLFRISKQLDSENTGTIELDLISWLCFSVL

Insulin-degrading enzyme [2] = target: T2, Insulin-degrading enzyme (Homo sapiens, UniProt P14735); assay: recombinant IDE activation, cell-free – biochemical, fluorescence polarization, counter-screen for IDE activator project, dose response (AID 588681)
Insulin-degrading enzyme [3] = target: T2, Insulin-degrading enzyme; assay: cellular IDE activation of Abeta substrate cleavage – fluorescence polarization, HEK cells, dose response (AID 588439); type: functional, cell-based
HEK293 [4] = assay: membrane integrity loss in HEK cells – cell-based, fluorescence, cytotoxicity control for IDE activator project, dose response (AID 588440); type: functional; conditions: Homo sapiens;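 also: cytotoxicity by LDH release measuring loss of membrane integrity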
HEK293 [5] = assay: optical interference in Abeta FP readout, dose response, artefact control for IDE activator project, biochemical, fluorescence polarization (AID 588442); type: functional, cell-based; conditions: Homo sapiens
[6] = target: T3, High affinity choline transporter 1 (Homo sapiens, UniProt Q9GZV3); assay: human choline transporter blockers, potency – cell-based, 5-point CRC, membrane potential dye, dose response (AID 504840); type: functional
T3 sequence (Q9GZV3 whole entry): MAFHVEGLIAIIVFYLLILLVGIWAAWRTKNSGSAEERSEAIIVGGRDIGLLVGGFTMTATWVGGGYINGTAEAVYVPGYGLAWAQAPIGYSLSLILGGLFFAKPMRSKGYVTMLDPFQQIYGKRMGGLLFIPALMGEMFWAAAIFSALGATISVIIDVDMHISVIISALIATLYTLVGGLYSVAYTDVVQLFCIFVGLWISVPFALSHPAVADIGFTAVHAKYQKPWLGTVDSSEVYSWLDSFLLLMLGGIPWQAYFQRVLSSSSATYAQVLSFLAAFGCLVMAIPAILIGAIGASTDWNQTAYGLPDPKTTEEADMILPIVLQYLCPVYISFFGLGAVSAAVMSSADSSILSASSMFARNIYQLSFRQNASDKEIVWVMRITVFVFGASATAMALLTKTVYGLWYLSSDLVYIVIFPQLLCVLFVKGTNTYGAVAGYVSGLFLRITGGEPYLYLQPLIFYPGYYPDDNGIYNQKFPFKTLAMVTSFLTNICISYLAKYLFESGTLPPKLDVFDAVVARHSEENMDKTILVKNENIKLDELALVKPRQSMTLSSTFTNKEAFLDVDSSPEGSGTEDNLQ

[7] = target: T3, High affinity choline transporter 1; assay: human choline transporter blockers, potency – cell-based, 10-point CRC, membrane potential dye, dose response (AID 588401); type: functional;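 also: membrane potential dye fluorescence of choline-evoked depolarization via CHT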
[8] = Trypanosoma cruzi growth suppression in host cells – NIH3T3 host cells, beta-gal luminescence, confirmation (AID 2044); type: functional, cell-based;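 also: intracellular parasites grown in NIH/3T3 mouse fibroblasts as host cells; luminescent beta-galactosidase reporter signal from transgenic T. cruzi replicating inside host cells; inhibitors lower the luminescence signal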
[9] = NIH3T3 cell viability loss – ATP luminescence, mouse fibroblasts, counter-screen, dose response (AID 2010); type: functional, cell-based;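 also: cells exposed to compound for about 90 hours before reading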
[10] = target: T4, Heat shock factor protein 1 (Mus musculus, UniProt P38532); assay: enhancement of HSF1-driven luciferase signal – cell-based, NIH3T3, luminescence, dose retest, confirmation (AID 435004); type: functional;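 also: stress induced by proteasome inhibitor MG132 added 30 min after compound; luciferase reporter driven by HSF1 response element in NIH3T3 cells; actives raise luminescence as potentiators of the MG132 stress response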
T4 sequence (P38532 whole entry): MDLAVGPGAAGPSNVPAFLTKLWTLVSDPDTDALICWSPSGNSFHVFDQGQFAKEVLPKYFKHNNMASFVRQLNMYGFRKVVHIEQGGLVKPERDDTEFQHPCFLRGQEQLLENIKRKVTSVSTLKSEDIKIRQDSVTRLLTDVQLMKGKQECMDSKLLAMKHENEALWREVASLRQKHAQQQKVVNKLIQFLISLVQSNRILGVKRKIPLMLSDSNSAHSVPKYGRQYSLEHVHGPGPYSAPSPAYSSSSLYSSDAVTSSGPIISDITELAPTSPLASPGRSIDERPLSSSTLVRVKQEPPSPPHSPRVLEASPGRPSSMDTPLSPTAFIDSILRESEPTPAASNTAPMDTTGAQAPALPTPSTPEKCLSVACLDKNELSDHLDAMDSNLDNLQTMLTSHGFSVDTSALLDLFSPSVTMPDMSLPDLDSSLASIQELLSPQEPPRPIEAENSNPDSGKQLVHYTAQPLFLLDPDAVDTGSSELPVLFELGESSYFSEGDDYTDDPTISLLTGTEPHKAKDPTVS

CAAX prenyl protease 2 = target: T5, CAAX prenyl protease 2 (Saccharomyces cerevisiae S288c, UniProt Q03530); assay: inhibition of Rce1p peptide cleavage – biochemical, plate reader, dry powder retest, dose response (AID 588851)
T5 sequence (Q03530 whole entry): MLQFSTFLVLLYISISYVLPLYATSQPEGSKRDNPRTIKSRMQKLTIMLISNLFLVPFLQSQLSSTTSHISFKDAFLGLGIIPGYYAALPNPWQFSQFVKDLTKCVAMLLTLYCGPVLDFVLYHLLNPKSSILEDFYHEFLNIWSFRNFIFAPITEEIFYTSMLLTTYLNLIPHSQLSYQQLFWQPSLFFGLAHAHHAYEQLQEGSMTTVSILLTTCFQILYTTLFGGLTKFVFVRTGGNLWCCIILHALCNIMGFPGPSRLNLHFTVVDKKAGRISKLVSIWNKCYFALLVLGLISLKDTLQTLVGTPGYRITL

[11] = target: Dual specificity mitogen-activated protein kinase kinase 1 (Homo sapiens, UniProt Q02750); assay: Navigating the Kinome. Panel member name: MAP2K1; type: functional
[12] = target: ALK tyrosine kinase receptor (Homo sapiens, UniProt Q9UM73); type: functional;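 also: ALK tested as one member of a kinase panel screen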
[13] = target: Tyrosine-protein kinase receptor TYRO3 (Homo sapiens, UniProt Q06418); type: functional;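 also: TYRO3 value obtained as one member of a kinome-wide profiling panel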
[14] = target: Mitogen-activated protein kinase 8 (Homo sapiens, UniProt P45983); type: functional;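 also: value comes from one member of a kinome-wide kinase profiling panel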
[15] = target: Serine/threonine-protein kinase pim-1 (Homo sapiens, UniProt P11309); type: functional
[16] = target: Tyrosine-protein kinase BTK (Homo sapiens, UniProt Q06187); type: functional
[17] = target: Fibroblast growth factor receptor 1 (Homo sapiens, UniProt P11362); type: functional
[18] = target: Serine/threonine-protein kinase TAO1 (Homo sapiens, UniProt Q7L7X3); type: functional
[19] = target: Glycogen synthase kinase-3 alpha (Homo sapiens, UniProt P49840); type: functional;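 also: GSK3A result taken from a broad kinome-wide kinase panel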
[20] = target: Mitogen-activated protein kinase kinase kinase kinase 2 (Homo sapiens, UniProt Q12851); type: functional;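 also: measured as one member of a kinome-wide kinase panel, with MAP4K2 as the panel entry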
Activated CDC42 kinase 1 = Activated CDC42 kinase 1 (Homo sapiens, UniProt Q07912); assay: Navigating the Kinome. Panel member name: ACK1; type: functional
[21] = target: Platelet-derived growth factor receptor beta (Homo sapiens, UniProt P09619); type: functional;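 also: value comes from a kinome panel, with PDGFRB tested as one panel member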
[22] = target: Serine/threonine-protein kinase Chk1 (Homo sapiens, UniProt O14757); type: functional;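 also: measured as one member of a kinome-wide kinase profiling panel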
[23] = target: Vascular endothelial growth factor receptor 2 (Homo sapiens, UniProt P35968); type: functional
[24] = target: G protein-coupled receptor kinase 5 (Homo sapiens, UniProt P34947); assay: Navigating the Kinome. Panel member name: GPRK5; type: functional
[25] = target: Leucine-rich repeat serine/threonine-protein kinase 2 (Homo sapiens, UniProt Q5S007); type: functional;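 also: value from a broad kinome-wide panel profiling study in which LRRK2 was one of the kinases tested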
[26] = target: Cyclin-dependent kinase 19 (Homo sapiens, UniProt Q9BWU1); assay: Navigating the Kinome. Panel member name: CDC2L6; type: functional
[27] = target: Tyrosine-protein kinase Fyn (Homo sapiens, UniProt P06241); type: functional
[28] = target: Serine/threonine-protein kinase Nek2 (Homo sapiens, UniProt P51955); type: functional
[29] = target: Cyclin-dependent kinase 8 (Homo sapiens, UniProt P49336); assay: Navigating the Kinome. Panel member name: CDK8; type: functional
[30] = target: Glycogen synthase kinase-3 beta (Homo sapiens, UniProt P49841); type: functional;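 also: value comes from a broad kinome profiling panel, with GSK3B as the panel member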
[31] = target: Dual specificity mitogen-activated protein kinase kinase 2 (Homo sapiens, UniProt P36507); assay: Navigating the Kinome. Panel member name: MAP2K2; type: functional
[32] = target: Inhibitor of nuclear factor kappa-B kinase subunit epsilon (Homo sapiens, UniProt Q14164); assay: Navigating the Kinome. Panel member name: IKBKE; type: functional
CHO-K1 = assay: Counterscreen for antagonists of the orexin 1 receptor (OX1R; HCRTR1): Homogeneous time resolved fluorescence (HTRF)-based cell-based dose response assay to identify antagonists of the parental CHO-K1 cell line. [Related pubchem assays (depositor defined):AID434989, AID435008, AID463079, AID485270, AID492963, AID492964, AID492965, AID493232, AID504699, AID504701]; type: functional; conditions: Cricetulus griseus;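 also: potency for inhibition of ATP-stimulated IP1 production as antagonists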
[33] = Counterscreen for antagonists of the orexin 1 receptor (OX1R; HCRTR1): Fluorescence-based cell-based high throughput dose response assay to identify antagonists of the parental CHO cell line. [Related pubchem assays (depositor defined):AID434989, AID435008, AID463079, AID485270, AID492963, AID492964, AID492965, AID493232, AID504699, AID504701]; type: functional
[34] = target: T6, Orexin/Hypocretin receptor type 1 (Homo sapiens, UniProt O43613); assay: Homogeneous Time Resolved Fluorescence (HTRF)-based cell-based high throughput dose response assay for antagonists of the orexin 1 receptor (OX1R; HCRTR1). [Related pubchem assays (depositor defined):AID434989, AID435008, AID463079, AID485270, AID492963, AID492964, AID492965, AID493232, AID504717, AID504718]; type: functional
[35] = target: T6, Orexin/Hypocretin receptor type 1; assay: Fluorescence-based cell-based high throughput dose response assay for antagonists of the orexin 1 receptor (OX1R; HCRTR1). [Related pubchem assays (depositor defined):AID434989, AID435008, AID463079, AID485270, AID492963, AID492964, AID492965, AID493232, AID504717, AID504718]; type: functional
Orexin receptor type 2 [36] = target: T7, Orexin receptor type 2 (Homo sapiens, UniProt O43614); assay: Counterscreen assay for antagonists of the orexin 1 receptor (OX1R; HCRTR1): Fluorescence-based cell-based dose response assay for antagonists of the orexin 2 receptor (OX2R; HCRTR2), run by assay provider.; type: functional
Orexin receptor type 2 [37] = target: T7, Orexin receptor type 2; assay: Counterscreen assay for antagonists of the orexin 1 receptor (OX1R; HCRTR1): Homogeneous Time Resolved Fluorescence (HTRF)-based cell-based dose response assay for antagonists of the orexin 2 receptor (OX2R; HCRTR2), run by assay provider.; type: functional
[38] = target: DNA dC->dU-editing enzyme APOBEC-3G (Homo sapiens, UniProt Q9HC16); assay: inhibition of APOBEC3G ssDNA deamination – biochemical, fluorescence, single-stranded DNA substrate, SAR follow-up (AID 602136); type: functional; conditions: read-out: IC50_Mean
[39] = target: DNA dC->dU-editing enzyme APOBEC-3A (Homo sapiens, UniProt P31941); assay: SAR analysis of small molecule inhibitors of APOBEC3A DNA Deaminase via a fluorescence-based single-stranded DNA deaminase assay.; type: functional; conditions: read-out: IC50_Mean
[40] = target: T3, High affinity choline transporter 1; assay: human choline transporter potentiators, potency – cell-based, 10-point CRC, membrane potential dye, dose response (AID 602376); type: functional

T2 sequence (P14735 whole entry): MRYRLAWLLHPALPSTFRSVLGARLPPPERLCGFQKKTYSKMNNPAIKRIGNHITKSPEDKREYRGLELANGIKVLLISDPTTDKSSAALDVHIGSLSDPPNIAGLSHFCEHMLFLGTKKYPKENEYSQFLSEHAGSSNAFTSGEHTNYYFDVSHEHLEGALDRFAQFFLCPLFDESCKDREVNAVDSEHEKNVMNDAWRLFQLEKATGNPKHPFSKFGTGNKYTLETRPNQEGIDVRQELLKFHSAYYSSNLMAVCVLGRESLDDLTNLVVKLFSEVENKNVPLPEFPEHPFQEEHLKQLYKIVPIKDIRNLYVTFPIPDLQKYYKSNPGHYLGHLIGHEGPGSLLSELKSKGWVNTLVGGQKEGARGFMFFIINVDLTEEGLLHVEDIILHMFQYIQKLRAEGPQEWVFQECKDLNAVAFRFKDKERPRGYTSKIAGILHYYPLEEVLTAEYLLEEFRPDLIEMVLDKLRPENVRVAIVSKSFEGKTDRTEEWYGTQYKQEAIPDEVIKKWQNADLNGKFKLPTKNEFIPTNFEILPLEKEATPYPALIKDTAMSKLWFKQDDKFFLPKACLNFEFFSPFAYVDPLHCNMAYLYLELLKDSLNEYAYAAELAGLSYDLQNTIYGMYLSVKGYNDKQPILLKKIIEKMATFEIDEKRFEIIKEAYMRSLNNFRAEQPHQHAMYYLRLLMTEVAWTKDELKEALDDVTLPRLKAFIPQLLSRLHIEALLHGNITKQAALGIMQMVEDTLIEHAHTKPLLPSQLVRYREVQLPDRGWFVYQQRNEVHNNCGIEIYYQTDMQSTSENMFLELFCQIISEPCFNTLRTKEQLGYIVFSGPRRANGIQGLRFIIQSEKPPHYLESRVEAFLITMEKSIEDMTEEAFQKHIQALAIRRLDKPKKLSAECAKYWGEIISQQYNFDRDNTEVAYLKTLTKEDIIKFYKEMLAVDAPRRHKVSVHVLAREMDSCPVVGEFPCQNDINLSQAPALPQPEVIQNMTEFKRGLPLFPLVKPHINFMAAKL
T7 sequence (O43614 whole entry): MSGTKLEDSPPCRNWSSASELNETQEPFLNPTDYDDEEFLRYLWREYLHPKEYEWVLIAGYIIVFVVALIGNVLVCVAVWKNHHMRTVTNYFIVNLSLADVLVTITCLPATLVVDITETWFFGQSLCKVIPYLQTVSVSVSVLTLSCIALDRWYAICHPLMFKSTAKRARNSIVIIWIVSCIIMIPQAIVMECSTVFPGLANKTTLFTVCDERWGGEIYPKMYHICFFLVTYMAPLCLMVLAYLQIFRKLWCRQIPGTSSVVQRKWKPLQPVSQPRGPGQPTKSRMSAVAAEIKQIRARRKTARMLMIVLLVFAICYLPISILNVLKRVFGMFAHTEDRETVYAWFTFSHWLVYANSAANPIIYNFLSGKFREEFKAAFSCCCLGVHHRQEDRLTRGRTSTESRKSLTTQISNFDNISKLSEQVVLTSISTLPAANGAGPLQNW
T6 sequence (O43613 whole entry): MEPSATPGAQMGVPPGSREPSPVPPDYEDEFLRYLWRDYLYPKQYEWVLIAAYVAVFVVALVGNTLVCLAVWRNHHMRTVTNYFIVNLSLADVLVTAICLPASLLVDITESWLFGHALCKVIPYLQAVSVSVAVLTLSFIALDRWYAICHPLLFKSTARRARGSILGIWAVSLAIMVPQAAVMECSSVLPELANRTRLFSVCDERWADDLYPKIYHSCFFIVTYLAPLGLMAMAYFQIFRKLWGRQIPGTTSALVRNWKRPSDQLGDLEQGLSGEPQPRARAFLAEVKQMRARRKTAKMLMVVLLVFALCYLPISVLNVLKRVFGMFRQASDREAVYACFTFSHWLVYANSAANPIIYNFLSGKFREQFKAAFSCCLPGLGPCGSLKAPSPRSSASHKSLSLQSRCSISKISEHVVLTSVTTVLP
Sequence of ALK tyrosine kinase receptor (Q9UM73 whole entry): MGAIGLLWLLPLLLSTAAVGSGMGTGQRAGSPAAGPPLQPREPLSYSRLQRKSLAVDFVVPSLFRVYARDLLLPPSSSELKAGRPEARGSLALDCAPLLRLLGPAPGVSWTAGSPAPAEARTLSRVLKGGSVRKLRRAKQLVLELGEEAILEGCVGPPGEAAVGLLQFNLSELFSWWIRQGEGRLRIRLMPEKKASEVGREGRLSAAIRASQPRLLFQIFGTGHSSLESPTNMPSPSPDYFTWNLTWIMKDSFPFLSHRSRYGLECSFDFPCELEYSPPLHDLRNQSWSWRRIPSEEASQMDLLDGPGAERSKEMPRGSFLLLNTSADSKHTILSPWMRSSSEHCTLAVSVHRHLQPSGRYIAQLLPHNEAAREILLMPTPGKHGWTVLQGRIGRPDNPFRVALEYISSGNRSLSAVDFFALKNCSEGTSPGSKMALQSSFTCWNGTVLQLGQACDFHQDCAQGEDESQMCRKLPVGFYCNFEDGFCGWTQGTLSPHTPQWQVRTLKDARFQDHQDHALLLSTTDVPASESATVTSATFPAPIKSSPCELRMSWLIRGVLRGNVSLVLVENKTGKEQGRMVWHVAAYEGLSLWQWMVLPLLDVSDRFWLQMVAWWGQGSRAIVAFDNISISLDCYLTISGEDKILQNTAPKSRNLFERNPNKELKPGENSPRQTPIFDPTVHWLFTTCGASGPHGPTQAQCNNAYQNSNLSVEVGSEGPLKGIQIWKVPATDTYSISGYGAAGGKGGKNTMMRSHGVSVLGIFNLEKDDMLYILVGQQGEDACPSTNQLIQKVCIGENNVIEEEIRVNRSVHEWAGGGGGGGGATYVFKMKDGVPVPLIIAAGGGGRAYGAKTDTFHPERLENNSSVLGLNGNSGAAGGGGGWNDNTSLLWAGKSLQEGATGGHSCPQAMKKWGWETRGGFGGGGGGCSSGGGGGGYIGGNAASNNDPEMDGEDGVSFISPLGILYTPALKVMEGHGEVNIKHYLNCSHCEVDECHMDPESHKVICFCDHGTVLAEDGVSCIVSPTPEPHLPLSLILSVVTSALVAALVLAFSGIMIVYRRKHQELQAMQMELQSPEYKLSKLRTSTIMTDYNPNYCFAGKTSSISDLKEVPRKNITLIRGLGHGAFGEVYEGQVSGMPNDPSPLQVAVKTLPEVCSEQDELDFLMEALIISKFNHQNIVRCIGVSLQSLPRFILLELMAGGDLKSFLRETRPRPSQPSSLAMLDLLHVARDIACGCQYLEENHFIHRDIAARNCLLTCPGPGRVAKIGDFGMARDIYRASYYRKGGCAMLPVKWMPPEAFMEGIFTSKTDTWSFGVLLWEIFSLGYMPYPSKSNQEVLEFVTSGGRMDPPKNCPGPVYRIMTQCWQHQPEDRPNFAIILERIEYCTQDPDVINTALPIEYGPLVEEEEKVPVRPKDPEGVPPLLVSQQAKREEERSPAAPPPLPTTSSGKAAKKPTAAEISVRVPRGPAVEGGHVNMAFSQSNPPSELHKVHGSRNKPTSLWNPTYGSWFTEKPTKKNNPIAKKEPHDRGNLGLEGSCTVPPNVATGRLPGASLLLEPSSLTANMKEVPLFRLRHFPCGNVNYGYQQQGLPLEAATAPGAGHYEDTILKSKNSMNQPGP
Sequence of Serine/threonine-protein kinase TAO1 (Q7L7X3 whole entry): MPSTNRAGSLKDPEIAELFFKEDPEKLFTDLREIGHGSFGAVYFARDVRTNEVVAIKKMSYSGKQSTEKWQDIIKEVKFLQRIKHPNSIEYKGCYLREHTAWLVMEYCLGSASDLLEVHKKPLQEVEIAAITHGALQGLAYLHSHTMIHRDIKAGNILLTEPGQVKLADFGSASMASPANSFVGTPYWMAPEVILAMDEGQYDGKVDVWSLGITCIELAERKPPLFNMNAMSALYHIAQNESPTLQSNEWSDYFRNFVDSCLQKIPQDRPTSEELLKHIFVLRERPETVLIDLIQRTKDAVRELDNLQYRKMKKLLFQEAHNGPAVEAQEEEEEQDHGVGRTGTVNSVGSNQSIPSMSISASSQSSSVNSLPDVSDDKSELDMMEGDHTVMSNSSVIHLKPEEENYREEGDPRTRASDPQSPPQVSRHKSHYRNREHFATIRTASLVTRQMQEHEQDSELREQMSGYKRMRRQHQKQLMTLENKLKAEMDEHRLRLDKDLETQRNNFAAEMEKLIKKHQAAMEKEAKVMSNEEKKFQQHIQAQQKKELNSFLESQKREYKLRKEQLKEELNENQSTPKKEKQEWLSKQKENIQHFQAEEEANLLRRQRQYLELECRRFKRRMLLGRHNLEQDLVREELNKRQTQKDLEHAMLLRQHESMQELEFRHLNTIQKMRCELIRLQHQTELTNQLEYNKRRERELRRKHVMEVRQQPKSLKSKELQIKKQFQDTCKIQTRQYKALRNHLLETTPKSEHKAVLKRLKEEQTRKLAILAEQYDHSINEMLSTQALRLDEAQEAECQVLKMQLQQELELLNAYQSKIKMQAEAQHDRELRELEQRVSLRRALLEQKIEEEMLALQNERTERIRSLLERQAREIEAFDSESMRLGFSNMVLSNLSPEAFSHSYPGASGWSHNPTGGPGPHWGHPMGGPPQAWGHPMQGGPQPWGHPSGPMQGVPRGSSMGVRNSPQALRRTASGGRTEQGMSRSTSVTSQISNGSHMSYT
Sequence of Cyclin-dependent kinase 19 (Q9BWU1 whole entry): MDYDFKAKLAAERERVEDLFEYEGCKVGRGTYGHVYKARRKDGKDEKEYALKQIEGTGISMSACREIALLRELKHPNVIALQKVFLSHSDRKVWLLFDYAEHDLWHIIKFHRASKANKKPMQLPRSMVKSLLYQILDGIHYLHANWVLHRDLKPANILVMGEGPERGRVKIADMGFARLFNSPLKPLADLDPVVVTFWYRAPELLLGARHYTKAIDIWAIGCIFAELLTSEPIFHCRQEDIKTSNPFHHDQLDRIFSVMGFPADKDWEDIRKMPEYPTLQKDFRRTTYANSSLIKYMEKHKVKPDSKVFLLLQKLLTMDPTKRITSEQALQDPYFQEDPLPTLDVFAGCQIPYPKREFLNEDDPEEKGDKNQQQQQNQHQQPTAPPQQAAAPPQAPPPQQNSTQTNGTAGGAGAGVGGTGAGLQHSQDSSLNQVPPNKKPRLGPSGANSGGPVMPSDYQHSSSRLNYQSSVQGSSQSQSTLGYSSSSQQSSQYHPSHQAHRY

COc1ccc(OCCNc2cc(N3CCOCC3)ccc2[N+](=O)[O-])cc1
13.8 µM (not active): IC50 [1]
inactive: EC50 (Insulin-degrading enzyme [2]) > 54.7 µM | EC50 (Insulin-degrading enzyme [3]) > 54.7 µM | IC50 (HEK293 [4]) > 89.3 µM | EC50 (HEK293 [5]) > 56 µM

Cc1cccc(NC(=O)c2[nH]nc([N+](=O)[O-])c2Br)c1C
active: IC50 [6] 4.1 µM | IC50 [7] 1.41 µM

COc1ccc(-n2c(SCc3ccc([N+](=O)[O-])cc3)nnc2-c2ccc(C)cc2)cc1
inactive: EC50 [10] > 260 µM
inconclusive: EC50 [9] > 60 µM
active: EC50 [8] 1.35 µM | AC50 (CAAX prenyl protease 2) 5.39 µM

O=c1[nH]n2ccccc2c1Br
active: Ki [11] 2.51 µM | Ki [12] 5.01 µM | Ki [13] 2.51 µM | Ki [14] 5.01 µM | Ki [15] 3.98 µM | Ki [16] 5.01 µM | Ki [17] 3.98 µM | Ki [19] 3.98 µM | Ki [20] 2.51 µM | Ki (Activated CDC42 kinase 1) 3.98 µM | Ki [21] 2 µM | Ki [22] 0.631 µM | Ki [23] 2 µM | Ki [24] 3.98 µM | Ki [25] 2.51 µM | Ki [26] 3.16 µM | Ki [27] 5.01 µM | Ki [28] 3.16 µM | Ki [29] 3.98 µM | Ki [30] 3.16 µM | Ki [31] 1.58 µM | Ki [32] 3.16 µM
inactive: Ki [18] > 6.31 µM

COc1cccc(/C=C2/Oc3ccccc3N(CC(=O)NCC3CCCO3)C2=O)c1 (stereo not drawn)
inactive: IC50 (CHO-K1) > 66.2 µM | IC50 [33] > 49.7 µM
active: IC50 [34] 0.254 µM | IC50 [35] 0.426 µM | IC50 (Orexin receptor type 2 [36]) 3.82 µM | IC50 (Orexin receptor type 2 [37]) 0.96 µM

COc1ccc(-c2nnc(SCC(=O)c3cccc(Br)c3)[nH]2)cc1
inactive: IC50 [38] > 99 µM | IC50 [39] > 99 µM

COc1ccc(-c2nnc(SC(C)C(=O)NCc3ccc4c(c3)OCO4)n2Cc2ccco2)cc1 (stereo not drawn)
active: EC50 [40] 24.3 µM
